# Test results reported in patent publication US20140309265A1, “MACROCYCLIC COMPOUNDS FOR INHIBITION OF INHIBITORS OF APOPTOSIS” (Ensemble Therapeutics, priority 2011, published 2014).
# Like-named read-outs stand apart in the source and are kept apart here.
# Columns and labels:
# Type in all cases: binding
# [1] = target: N-His-Tb-BIR3(241-356, XIAP) (Homo sapiens, UniProt P98170); assay: XIAP-BIR3 SMAC Peptide Fluorescence Polarization Assay (FPA)
# [2] = target: T1, XIAP His-BIR2 (124-240/C202A/C213G) (Homo sapiens, UniProt P98170, C202A/C213G); assay: XIAP-BIR2/SMAC Peptide AlphaScreen Assay; conditions: XIAP BIR2, AlphaScreen, Table 2; read-out: BIR2 IC50
# T1 construct: additions of His-BIR2 (124-240/C202A/C213G), Biotinylated SMAC peptide
# Description: A. XIAP-BIR2/SMAC Peptide AlphaScreen Assay Assays were performed in white, flat-bottom, 384-well ProxiPlates (Perkin Elmer). […] The reaction was incubated at room temperature for 60 minutes. After 60 minutes, 2.5 μL of Alphascreen detection reagent (Perkin Elmer) was added to the reaction mixture and incubated at room temperature in the dark for 120 minutes. The Alphascreen signal generated by the reaction was detected on the Envision Plate Reader. […] Compounds were dissolved at 10 mM in dimethylsulfoxide (DMSO) and evaluated at eleven concentrations. IC50 values were derived by non-linear regression analysis.
# [3] = target: T2, His-BIR3 (241-356, XIAP) (Homo sapiens, UniProt P98170); assay: XIAP-BIR3/SMAC Homogeneous Time Resolved Fluorescence (HTRF) Assay; conditions: Table 4
# T2 construct: additions of His-BIR3 (241-356, XIAP), fluorescein labeled SMAC peptide
# [4] = target: T3, His-BIR2-3 (125-356, C202A/C213G, XIAP) (Homo sapiens, UniProt P98170, C202A/C213G); assay: XIAP-BIR2-3 Dimeric SMAC Peptide Homogeneous Time Resolved Fluorescence (HTRF) Assay; conditions: XIAP BIR2-3, HTRF, Table 4
# T3 construct: additions of His-BIR2-3 (125-356, C202A/C213G, XIAP), fluorescein labeled dimeric SMAC peptide
# T3 sequence (P98170 125-356 C202A/C213G): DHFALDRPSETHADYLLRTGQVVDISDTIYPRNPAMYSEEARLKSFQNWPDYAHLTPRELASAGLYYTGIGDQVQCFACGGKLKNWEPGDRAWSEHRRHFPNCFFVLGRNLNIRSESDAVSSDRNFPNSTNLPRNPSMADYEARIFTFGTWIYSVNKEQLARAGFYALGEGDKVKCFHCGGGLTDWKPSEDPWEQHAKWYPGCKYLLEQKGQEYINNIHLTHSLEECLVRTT
# T1 sequence (P98170 124-240 C202A/C213G): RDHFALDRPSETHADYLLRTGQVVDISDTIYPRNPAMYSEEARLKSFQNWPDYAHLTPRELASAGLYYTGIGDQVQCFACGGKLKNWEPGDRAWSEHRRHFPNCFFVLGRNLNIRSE
# Sequence of N-His-Tb-BIR3(241-356, XIAP) (P98170 241-356): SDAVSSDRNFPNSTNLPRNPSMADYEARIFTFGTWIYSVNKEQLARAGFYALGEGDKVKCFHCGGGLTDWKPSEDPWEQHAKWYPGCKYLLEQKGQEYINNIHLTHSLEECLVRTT
# T2 sequence (P98170 241-356): as above
"IC50 ([1]; XIAP BIR3, FPA, Table 2, read-out: BIR3 IC50) [nM]",IC50 [3] [nM],IC50 [4] [nM],SMILES,IC50 [1] [nM],IC50 [2] [nM]
–,–,–,CN[C@@H](C)C(=O)N[C@H](C(=O)N1C[C@@H]2C[C@H]1C(=O)N[C@@H](Cc1ccccc1)C(=O)N[C@H](C(=O)O)Cc1ccc(cc1)OCc1cn(nn1)[C@H]1C[C@@H](C(=O)N[C@@H](Cc3ccccc3)C(=O)N[C@H](C(=O)O)Cc3ccc(cc3)OCc3cn2nn3)N(C(=O)[C@@H](NC(=O)[C@H](C)NC)C(C)C)C1)C(C)C [Compound 101],50 to 100,< 2000
–,–,–,CN[C@@H](C)C(=O)N[C@H](C(=O)N1C[C@@H]2C[C@H]1C(=O)N[C@@H](Cc1ccccc1)C(=O)N[C@@H](C(=O)O)Cc1ccc(cc1)NC(=O)CCc1cn(nn1)[C@H]1C[C@@H](C(=O)N[C@@H](Cc3ccccc3)C(=O)N[C@@H](C(=O)O)Cc3ccc(cc3)NC(=O)CCc3cn2nn3)N(C(=O)[C@@H](NC(=O)[C@H](C)NC)C(C)C)C1)C(C)C [Compound 102],50 to 100,< 2000
> 100,–,–,CN[C@@H](C)C(=O)N[C@H](C(=O)N1CCc2cn(nn2)CCCOc2ccc(cc2)C[C@@H](C(=O)O)NC(=O)[C@H](Cc2ccccc2)NC(=O)CN(C(=O)[C@@H](NC(=O)[C@H](C)NC)C(C)C)CCc2cn(nn2)CCCOc2ccc(cc2)C[C@@H](C(=O)O)NC(=O)[C@H](Cc2ccccc2)NC(=O)C1)C(C)C [Compound 103],–,2000 to 12000
–,–,–,CN[C@@H](C)C(=O)N[C@H](C(=O)N1C[C@@H]2C[C@H]1C(=O)N[C@@H](Cc1ccccc1)C(=O)N[C@H](C(=O)N1CCN(C)CC1)Cc1ccc(cc1)OCc1cn(nn1)[C@H]1C[C@@H](C(=O)N[C@@H](Cc3ccccc3)C(=O)N[C@H](C(=O)N3CCN(C)CC3)Cc3ccc(cc3)OCc3cn2nn3)N(C(=O)[C@@H](NC(=O)[C@H](C)NC)C(C)C)C1)C(C)C [Compound 104],50 to 100,> 12000
–,–,–,CCN(CC)C(=O)[C@@H]1Cc2ccc(cc2)OCc2cn(nn2)[C@H]2C[C@@H](C(=O)N[C@@H](Cc3ccccc3)C(=O)N[C@H](C(=O)N(CC)CC)Cc3ccc(cc3)OCc3cn(nn3)[C@H]3C[C@@H](C(=O)N[C@@H](Cc4ccccc4)C(=O)N1)N(C(=O)[C@@H](NC(=O)[C@H](C)NC)C(C)C)C3)N(C(=O)[C@@H](NC(=O)[C@H](C)NC)C(C)C)C2 [Compound 105],50 to 100,> 12000
–,–,–,CN[C@@H](C)C(=O)N[C@H](C(=O)N1C[C@@H]2C[C@H]1C(=O)N[C@@H](Cc1ccccc1)C(=O)N[C@H](C(=O)NCCN(C)C)Cc1ccc(cc1)OCc1cn(nn1)[C@H]1C[C@@H](C(=O)N[C@@H](Cc3ccccc3)C(=O)N[C@H](C(=O)NCCN(C)C)Cc3ccc(cc3)OCc3cn2nn3)N(C(=O)[C@@H](NC(=O)[C@H](C)NC)C(C)C)C1)C(C)C [Compound 106],50 to 100,> 12000
–,–,–,CN[C@@H](C)C(=O)N[C@H](C(=O)N1C[C@@H]2C[C@H]1C(=O)N[C@@H](CCc1ccccc1)C(=O)N[C@H](C(=O)O)Cc1ccc(cc1)OCc1cn(nn1)[C@H]1C[C@@H](C(=O)N[C@@H](CCc3ccccc3)C(=O)N[C@H](C(=O)O)Cc3ccc(cc3)OCc3cn2nn3)N(C(=O)[C@@H](NC(=O)[C@H](C)NC)C(C)C)C1)C(C)C [Compound 107],> 100,< 2000
–,–,–,CN[C@@H](C)C(=O)N[C@@H](CC1CCCCC1)C(=O)N1C[C@@H]2C[C@H]1C(=O)N[C@@H](Cc1ccccc1)C(=O)N[C@H](C(=O)O)Cc1ccc(cc1)OCc1cn(nn1)[C@H]1C[C@@H](C(=O)N[C@@H](Cc3ccccc3)C(=O)N[C@H](C(=O)O)Cc3ccc(cc3)OCc3cn2nn3)N(C(=O)[C@H](CC2CCCCC2)NC(=O)[C@H](C)NC)C1 [Compound 109],< 50,< 2000
–,–,–,CN[C@@H](C)C(=O)N[C@H](C(=O)N1C[C@@H]2C[C@H]1C(=O)N[C@@H](Cc1cccc(C(F)(F)F)c1)C(=O)N[C@H](C(=O)O)Cc1ccc(cc1)COc1cn(nn1)[C@H]1C[C@@H](C(=O)N[C@@H](Cc3cccc(C(F)(F)F)c3)C(=O)N[C@H](C(=O)O)Cc3ccc(cc3)OCc3cn2nn3)N(C(=O)[C@@H](NC(=O)[C@H](C)NC)C(C)C)C1)C(C)C [Compound 112],< 50,2000 to 12000
–,–,–,CN[C@@H](C)C(=O)N[C@H](C(=O)N1C[C@@H]2C[C@H]1C(=O)N[C@@H](Cc1ccc(C(F)(F)F)cc1)C(=O)N[C@H](C(=O)O)Cc1ccc(cc1)COc1cn(nn1)[C@H]1C[C@@H](C(=O)N[C@@H](Cc3ccc(C(F)(F)F)cc3)C(=O)N[C@H](C(=O)O)Cc3ccc(cc3)OCc3cn2nn3)N(C(=O)[C@@H](NC(=O)[C@H](C)NC)C(C)C)C1)C(C)C [Compound 113],50 to 100,> 12000
–,–,–,CN[C@@H](C)C(=O)N[C@H](C(=O)N1C[C@@H]2C[C@H]1C(=O)N[C@@H](Cc1ccccc1)C(=O)NCc1cn(nn1)[C@H]1C[C@@H](C(=O)N[C@@H](Cc3ccccc3)C(=O)NCc3cn2nn3)N(C(=O)[C@@H](NC(=O)[C@H](C)NC)C(C)C)C1)C(C)C [Compound 116],–,< 2000
–,–,–,CN[C@@H](C)C(=O)N[C@H](C(=O)N1C[C@@H]2CC1C(=O)N[C@@H](Cc1ccccc1)C(=O)N[C@H](C(=O)O)Cc1ccc(cc1)OCc1cn(nn1)[C@H]1C[C@@H](C(=O)N[C@@H](Cc3ccccc3)C(=O)NCc3cn2nn3)N(C(=O)[C@@H](NC(=O)[C@H](C)NC)C(C)C)C1)C(C)C [Compound 135],–,< 2000
–,–,–,CN[C@@H](C)C(=O)N[C@H](C(=O)N1C[C@@H]2C[C@H]1C(=O)N[C@@H](Cc1ccc3ccccc3c1)C(=O)N[C@H](C(=O)O)Cc1ccc(cc1)OCc1ccc(cc1)-c1cn(nn1)[C@H]1C[C@@H](C(=O)N[C@@H](Cc3ccc4ccccc4c3)C(=O)N[C@H](C(=O)O)Cc3ccc(cc3)OCc3cn2nn3)N(C(=O)[C@@H](NC(=O)[C@H](C)NC)C(C)(C)C)C1)C(C)(C)C [Compound 1000],50 to 100,–
–,< 10,≤ 1,CN[C@@H](C)C(=O)N[C@H](C(=O)N1C[C@@H]2C[C@H]1C(=O)N[C@@H](Cc1ccc3ccccc3c1)C(=O)N[C@H](C(=O)O)Cc1ccc(cc1)OCc1cn(nn1)[C@H]1C[C@@H](C(=O)N[C@@H](Cc3ccc4ccccc4c3)C(=O)N[C@H](c3nnn[nH]3)Cc3ccc(cc3)OCc3cn2nn3)N(C(=O)[C@@H](NC(=O)[C@H](C)NC)C(C)(C)C)C1)C(C)(C)C [Compound 1048],–,–
–,> 100,1 to 10,CN[C@@H](C)C(=O)N[C@H](C(=O)N1CCN2CCn3cc(nn3)C[C@@H](C(=O)OC)NC(=O)[C@H](Cc3ccc4ccccc4c3)NC(=O)[C@@H]3CN(CCN3C(=O)[C@@H](NC(=O)[C@H](C)NC)C(C)C)CCn3cc(nn3)C[C@@H](C(=O)O)NC(=O)[C@H](Cc3ccc4ccccc4c3)NC(=O)[C@@H]1C2)C(C)C [Compound 1049],–,–
–,> 100,> 10,CN[C@@H](C)C(=O)N[C@H](C(=O)N1CCN2C[C@H]1C(=O)N[C@@H](Cc1ccc3ccccc3c1)C(=O)N[C@H](C(=O)O)Cc1cn(nn1)CC(=O)N1CCN(C(=O)[C@@H](NC(=O)[C@H](C)NC)C(C)(C)C)[C@@H](C1)C(=O)N[C@@H](Cc1ccc3ccccc3c1)C(=O)N[C@H](C(=O)O)Cc1cn(nn1)CC2=O)C(C)(C)C [Compound 1051],–,–
–,< 10,≤ 1,CN[C@@H](C)C(=O)N[C@H](C(=O)N1C[C@@H]2C[C@H]1C(=O)N[C@@H](Cc1ccc3ccccc3c1)C(=O)N[C@H](C(=O)O)Cc1ccc(cc1)OCc1cn(nn1)[C@H]1C[C@@H](C(=O)N[C@@H](Cc3ccc4ccccc4c3)C(=O)N[C@H](C(=O)NS(=O)(=O)CCCNC(C)=O)Cc3ccc(cc3)OCc3cn2nn3)N(C(=O)[C@@H](NC(=O)[C@H](C)NC)C(C)(C)C)C1)C(C)(C)C [Compound 1052],–,–
